# Measurements from BindingDB's records for doi:10.1002/cbic.200300842 (University of Georgia, 2004).
# Several values for one entry are separate records, joined by “and”; a condition that tells them apart may be missing. Equal values may be shown once.
# Molecular target: T1, Alpha-mannosidase 2 (Homo sapiens, UniProt Q16706)
# T1 sequence (Q16706 whole entry): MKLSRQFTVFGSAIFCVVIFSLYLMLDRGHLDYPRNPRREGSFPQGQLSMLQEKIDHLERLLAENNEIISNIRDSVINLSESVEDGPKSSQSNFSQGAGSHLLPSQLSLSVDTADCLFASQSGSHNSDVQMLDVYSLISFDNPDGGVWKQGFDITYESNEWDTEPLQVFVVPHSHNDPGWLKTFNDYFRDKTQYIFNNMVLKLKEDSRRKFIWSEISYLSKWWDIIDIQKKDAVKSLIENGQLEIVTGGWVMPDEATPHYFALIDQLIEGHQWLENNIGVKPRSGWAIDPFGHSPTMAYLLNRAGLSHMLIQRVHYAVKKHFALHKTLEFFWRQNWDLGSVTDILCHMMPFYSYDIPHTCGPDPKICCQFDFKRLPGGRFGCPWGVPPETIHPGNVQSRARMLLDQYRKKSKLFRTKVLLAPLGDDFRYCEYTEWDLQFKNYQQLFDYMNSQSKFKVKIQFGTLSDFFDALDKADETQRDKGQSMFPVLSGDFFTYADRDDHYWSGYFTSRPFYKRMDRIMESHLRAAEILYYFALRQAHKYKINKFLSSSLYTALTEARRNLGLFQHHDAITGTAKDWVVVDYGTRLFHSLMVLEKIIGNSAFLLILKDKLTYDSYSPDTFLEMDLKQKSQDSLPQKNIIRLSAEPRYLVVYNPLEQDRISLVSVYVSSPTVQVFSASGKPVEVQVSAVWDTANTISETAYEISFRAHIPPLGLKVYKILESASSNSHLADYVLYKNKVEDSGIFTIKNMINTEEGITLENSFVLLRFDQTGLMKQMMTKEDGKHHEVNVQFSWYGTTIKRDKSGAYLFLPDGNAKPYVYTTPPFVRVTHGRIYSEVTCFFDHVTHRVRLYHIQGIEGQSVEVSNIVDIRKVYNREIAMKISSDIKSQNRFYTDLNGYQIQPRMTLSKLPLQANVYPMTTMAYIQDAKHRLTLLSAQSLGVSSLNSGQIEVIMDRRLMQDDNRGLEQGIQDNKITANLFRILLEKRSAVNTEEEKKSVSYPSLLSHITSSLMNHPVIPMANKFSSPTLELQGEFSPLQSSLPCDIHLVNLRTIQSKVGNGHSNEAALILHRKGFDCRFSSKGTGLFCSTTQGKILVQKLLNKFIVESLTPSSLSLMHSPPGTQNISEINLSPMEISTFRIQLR
# Conditions: pH 5.6; 37 °C
row,Ki,Structure (SMILES)
1,0.91 µM and 0.1 µM,"CS[C@H]1[C@H](O)[C@H](O)[C@H](O)[C@@H]1NCc1ccc(Cl)cc1 [Benzylation of mannostatin A, 1d]"
2,0.21 µM and 0.09 µM,"CS[C@@H]1[C@@H](N)[C@@H](O)[C@@H](O)[C@H]1O [Mannostatin A, 1]"
3,50 µM and 6.6 µM,"N[C@H]1[C@@H](O)[C@@H](O)[C@@H](O)[C@H]1O [Mannostatin analogue, 4b]"
4,0.53 µM and 0.17 µM,"CS[C@H]1[C@H](O)[C@H](O)[C@H](O)[C@@H]1NCc1ccc(F)cc1 [Benzylation of mannostatin A, 1c]"
5,0.52 µM and 0.1 µM,"COc1ccc(CN[C@H]2[C@@H](O)[C@@H](O)[C@@H](O)[C@@H]2SC)cc1 [Benzylation of mannostatin A, 1f]"
